Measurements: patent publication US20170290774A1, “NEUROKININ-1 RECEPTOR ANTAGONIST COMPOSITION FOR TREATMENT OF DISEASES AND CONDITIONS OF THE RESPIRATORY TRACT” (PLUS VITECH, S.L., priority 2014, published 2017)
Values joined by “and” are separate entries in the source; they are usually repeats but may differ in a detail not shown here. Identical values can stand only once.

Test: Tissue concentration of aprepitant by HPLC after oral or inhaled administration to rabbits
Type: in vivo, New Zealand albino rabbits
Settings: for concentration at 7 days: New Zealand White (albino), rabbit
Description: Herein, New Zealand albino rabbits (New Zealand White Rabbits) with an initial average weight of approximately 3 kg were used. The rabbits were fed ad libitum and were monitored daily to check that signs of toxicity had not appeared. […] This mixture was administered as an aerosol to the airways of a group of 3 of said rabbits (Group 5) in a dose of 0.05 mg/kg body weight per day, to another group of three rabbits (Group 6) in a dose of 0.1 mg/kg body weight per day, to another group of three rabbits (group 7) in a dose of 0.2 mg/kg body weight per day and to another group of three rabbits (Group 8) in a dose of 0.4 mg/kg body weight per day. […] After seven days of treatment all animals were euthanized and necropsied. […] Samples were taken at the peripheral level of the lung parenchyma, just below the pleural surface. Tissue samples were also taken from the nasal cavity, pharynx, larynx and bronchi. […] The average is the arithmetic average calculated for each row or column of each table. The SD is the standard deviation, calculated for each row or column of each table.

[1] = Group 1, oral 10 mg/kg per day, seven days, individual cases, 10 mg/kg/day
[2] = Group 2, oral 40 mg/kg per day, seven days, individual cases, 40 mg/kg/day
[3] = Group 3, oral 80 mg/kg per day, seven days, individual cases, 80 mg/kg/day
[4] = Group 4, oral 100 mg/kg per day, seven days, individual cases, 100 mg/kg/day
[5] = Group 5, inhalation (aerosol, olive oil) 0.05 mg/kg per day, seven days, individual cases, 0.05 mg/kg/day
[6] = Group 6, inhalation (aerosol, olive oil) 0.1 mg/kg per day, seven days, individual cases, 0.1 mg/kg/day
[7] = Group 7, inhalation (aerosol, olive oil) 0.2 mg/kg per day, seven days, individual cases, 0.2 mg/kg/day
[8] = Group 8, inhalation (aerosol, olive oil) 0.4 mg/kg per day, seven days, individual cases, 0.4 mg/kg/day

concentration at 7 days (in vivo, 0.05 mg/kg/day, Lung concentration of aprepitant, Average ± SD of the five lobes per case): 1400 ng/g
concentration at 7 days (in vivo, 0.1 mg/kg/day, Lung concentration of aprepitant, Average ± SD of the five lobes per case): 2800 ng/g
concentration at 7 days (in vivo, 0.2 mg/kg/day, Lung concentration of aprepitant, Average ± SD of the five lobes per case): 6020 ng/g
concentration at 7 days (in vivo, po, 100 mg/kg/day, Lung concentration of aprepitant, Average ± SD of the five lobes per case): 5240 ng/g
concentration at 7 days (lung, left inferior lobe, inhaled, 0.05 mg/kg/day, Lung concentration of aprepitant LIPI (left inferior lobe), Group 5, inhalation (aerosol, olive oil) 0.05 mg/kg per day, seven days, individual cases): 1500 ng/g
concentration at 7 days (lung, left inferior lobe, inhaled, 0.05 mg/kg/day, Lung concentration of aprepitant LIPI, Average ± SD of cases, Group 5, inhalation (aerosol, olive oil) 0.05 mg/kg per day, seven days): 1400 ng/g
concentration at 7 days (lung, left inferior lobe, inhaled, 0.1 mg/kg/day, Lung concentration of aprepitant LIPI (left inferior lobe), Group 6, inhalation (aerosol, olive oil) 0.1 mg/kg per day, seven days, individual cases): 2800 ng/g
concentration at 7 days (lung, left inferior lobe, inhaled, 0.1 mg/kg/day, Lung concentration of aprepitant LIPI, Average ± SD of cases, Group 6, inhalation (aerosol, olive oil) 0.1 mg/kg per day, seven days): 2800 ng/g
concentration at 7 days (lung, left inferior lobe, inhaled, 0.2 mg/kg/day, Lung concentration of aprepitant LIPI (left inferior lobe), Group 7, inhalation (aerosol, olive oil) 0.2 mg/kg per day, seven days, individual cases): 5900 ng/g
concentration at 7 days (lung, left inferior lobe, po, 100 mg/kg/day, Lung concentration of aprepitant LIPI (left inferior lobe), Group 4, oral 100 mg/kg per day, seven days, individual cases): 6100 ng/g
concentration at 7 days (lung, left inferior lobe, po, 100 mg/kg/day, Lung concentration of aprepitant LIPI, Average ± SD of cases, Group 4, oral 100 mg/kg per day, seven days): 5300 ng/g
concentration at 7 days (lung, left superior lobe, inhaled, 0.05 mg/kg/day, Lung concentration of aprepitant LSPI (left superior lobe), Group 5, inhalation (aerosol, olive oil) 0.05 mg/kg per day, seven days, individual cases): 1400 ng/g
concentration at 7 days (lung, left superior lobe, inhaled, 0.05 mg/kg/day, Lung concentration of aprepitant LSPI, Average ± SD of cases, Group 5, inhalation (aerosol, olive oil) 0.05 mg/kg per day, seven days): 1400 ng/g
concentration at 7 days (lung, left superior lobe, inhaled, 0.1 mg/kg/day, Lung concentration of aprepitant LSPI (left superior lobe), Group 6, inhalation (aerosol, olive oil) 0.1 mg/kg per day, seven days, individual cases): 2800 ng/g
concentration at 7 days (lung, left superior lobe, inhaled, 0.1 mg/kg/day, Lung concentration of aprepitant LSPI, Average ± SD of cases, Group 6, inhalation (aerosol, olive oil) 0.1 mg/kg per day, seven days): 2700 ng/g
concentration at 7 days (lung, left superior lobe, inhaled, 0.2 mg/kg/day, Lung concentration of aprepitant LSPI (left superior lobe), Group 7, inhalation (aerosol, olive oil) 0.2 mg/kg per day, seven days, individual cases): 6100 ng/g
concentration at 7 days (lung, left superior lobe, po, 100 mg/kg/day, Lung concentration of aprepitant LSPI (left superior lobe), Group 4, oral 100 mg/kg per day, seven days, individual cases): 4300 ng/g
concentration at 7 days (lung, left superior lobe, po, 100 mg/kg/day, Lung concentration of aprepitant LSPI, Average ± SD of cases, Group 4, oral 100 mg/kg per day, seven days): 4600 ng/g
concentration at 7 days (lung, right inferior lobe, inhaled, 0.05 mg/kg/day, Lung concentration of aprepitant LIPD (right inferior lobe), Group 5, inhalation (aerosol, olive oil) 0.05 mg/kg per day, seven days, individual cases): 1500 ng/g
concentration at 7 days (lung, right inferior lobe, inhaled, 0.05 mg/kg/day, Lung concentration of aprepitant LIPD, Average ± SD of cases, Group 5, inhalation (aerosol, olive oil) 0.05 mg/kg per day, seven days): 1500 ng/g
concentration at 7 days (lung, right inferior lobe, inhaled, 0.1 mg/kg/day, Lung concentration of aprepitant LIPD (right inferior lobe), Group 6, inhalation (aerosol, olive oil) 0.1 mg/kg per day, seven days, individual cases): 2800 ng/g
concentration at 7 days (lung, right inferior lobe, inhaled, 0.1 mg/kg/day, Lung concentration of aprepitant LIPD, Average ± SD of cases, Group 6, inhalation (aerosol, olive oil) 0.1 mg/kg per day, seven days): 2800 ng/g
concentration at 7 days (lung, right inferior lobe, inhaled, 0.2 mg/kg/day, Lung concentration of aprepitant LIPD (right inferior lobe), Group 7, inhalation (aerosol, olive oil) 0.2 mg/kg per day, seven days, individual cases): 6000 ng/g
concentration at 7 days (lung, right inferior lobe, inhaled, 0.2 mg/kg/day, Lung concentration of aprepitant LIPD, Average ± SD of cases, Group 7, inhalation (aerosol, olive oil) 0.2 mg/kg per day, seven days): 6000 ng/g
Compound: C[C@@H](OC1OCCN(Cc2nc(=O)[nH][nH]2)C1c1ccc(F)cc1)c1cc(C(F)(F)F)cc(C(F)(F)F)c1 (stereo in doubt) [Aprepitant, 5-([(2R,3S)-2-((R)-1-[3,5-bis(trifluoromethyl)phenyl]ethoxy)-3-(4-fluorophenyl)morpholino]methyl)-1H-1,2,4-triazol-3(2H)-one]
Lung concentration of aprepitant LIPD (right inferior lobe) [1]: 0.9 micrograms of aprepitant per gram of lung tissue and 1.0 micrograms of aprepitant per gram of lung tissue
Lung concentration of aprepitant LIPI (left inferior lobe) [1]: 1.4 micrograms of aprepitant per gram of lung tissue and 1.1 micrograms of aprepitant per gram of lung tissue
Lung concentration of aprepitant LMPD (right middle lobe) [1]: 1.4 micrograms of aprepitant per gram of lung tissue and 1.5 micrograms of aprepitant per gram of lung tissue
Lung concentration of aprepitant LSPD (right superior lobe) [1]: 1.1 micrograms of aprepitant per gram of lung tissue and 0.4 micrograms of aprepitant per gram of lung tissue and 1.2 micrograms of aprepitant per gram of lung tissue
Lung concentration of aprepitant LSPI (left superior lobe) [1]: 1.0 micrograms of aprepitant per gram of lung tissue and 0.5 micrograms of aprepitant per gram of lung tissue
Lung concentration of aprepitant LIPD (right inferior lobe) [2]: 3.1 micrograms of aprepitant per gram of lung tissue and 4.2 micrograms of aprepitant per gram of lung tissue
Lung concentration of aprepitant LIPI (left inferior lobe) [2]: 2.8 micrograms of aprepitant per gram of lung tissue and 4.0 micrograms of aprepitant per gram of lung tissue
Lung concentration of aprepitant LMPD (right middle lobe) [2]: 2.9 micrograms of aprepitant per gram of lung tissue and 5.1 micrograms of aprepitant per gram of lung tissue
Lung concentration of aprepitant LSPD (right superior lobe) [2]: 4.1 micrograms of aprepitant per gram of lung tissue and 3.3 micrograms of aprepitant per gram of lung tissue
Lung concentration of aprepitant LSPI (left superior lobe) [2]: 4.2 micrograms of aprepitant per gram of lung tissue and 3.6 micrograms of aprepitant per gram of lung tissue
Lung concentration of aprepitant LIPD (right inferior lobe) [3]: 6.3 micrograms of aprepitant per gram of lung tissue and 5.3 micrograms of aprepitant per gram of lung tissue
Lung concentration of aprepitant LIPI (left inferior lobe) [3]: 3.4 micrograms of aprepitant per gram of lung tissue and 4.3 micrograms of aprepitant per gram of lung tissue
Lung concentration of aprepitant LMPD (right middle lobe) [3]: 5.5 micrograms of aprepitant per gram of lung tissue and 5.3 micrograms of aprepitant per gram of lung tissue
Lung concentration of aprepitant LSPD (right superior lobe) [3]: 4.2 micrograms of aprepitant per gram of lung tissue and 3.3 micrograms of aprepitant per gram of lung tissue
Lung concentration of aprepitant LSPI (left superior lobe) [3]: 5.1 micrograms of aprepitant per gram of lung tissue
Lung concentration of aprepitant LIPD (right inferior lobe) [4]: 5.9 micrograms of aprepitant per gram of lung tissue and 6.1 micrograms of aprepitant per gram of lung tissue
Lung concentration of aprepitant LIPI (left inferior lobe) [4]: 4.8 micrograms of aprepitant per gram of lung tissue and 5.1 micrograms of aprepitant per gram of lung tissue
Lung concentration of aprepitant LMPD (right middle lobe) [4]: 5.1 micrograms of aprepitant per gram of lung tissue and 5.4 micrograms of aprepitant per gram of lung tissue
Lung concentration of aprepitant LSPD (right superior lobe) [4]: 4.8 micrograms of aprepitant per gram of lung tissue and 4.3 micrograms of aprepitant per gram of lung tissue
Lung concentration of aprepitant LSPI (left superior lobe) [4]: 5.2 micrograms of aprepitant per gram of lung tissue and 4.5 micrograms of aprepitant per gram of lung tissue
Lung concentration of aprepitant LIPD (right inferior lobe) [5]: 1.5 micrograms of aprepitant per gram of lung tissue and 1.6 micrograms of aprepitant per gram of lung tissue
Lung concentration of aprepitant LIPI (left inferior lobe) [5]: 1.5 micrograms of aprepitant per gram of lung tissue and 1.4 micrograms of aprepitant per gram of lung tissue
Lung concentration of aprepitant LMPD (right middle lobe) [5]: 1.6 micrograms of aprepitant per gram of lung tissue and 1.5 micrograms of aprepitant per gram of lung tissue
Lung concentration of aprepitant LSPD (right superior lobe) [5]: 1.4 micrograms of aprepitant per gram of lung tissue and 1.5 micrograms of aprepitant per gram of lung tissue
Lung concentration of aprepitant LSPI (left superior lobe) [5]: 1.5 micrograms of aprepitant per gram of lung tissue
Lung concentration of aprepitant LMPD (right middle lobe) (Group 6, inhalation (aerosol, olive oil) 0.1 mg/kg per day, seven days, individual cases): 2.9 micrograms of aprepitant per gram of lung tissue
Lung concentration of aprepitant LIPD (right inferior lobe) [6]: 2.9 micrograms of aprepitant per gram of lung tissue and 2.8 micrograms of aprepitant per gram of lung tissue
Lung concentration of aprepitant LIPI (left inferior lobe) [6]: 2.8 micrograms of aprepitant per gram of lung tissue and 2.9 micrograms of aprepitant per gram of lung tissue
Lung concentration of aprepitant LSPD (right superior lobe) [6]: 2.8 micrograms of aprepitant per gram of lung tissue and 2.9 micrograms of aprepitant per gram of lung tissue
Lung concentration of aprepitant LSPI (left superior lobe) [6]: 2.7 micrograms of aprepitant per gram of lung tissue and 2.8 micrograms of aprepitant per gram of lung tissue
Lung concentration of aprepitant LIPD (right inferior lobe) (Group 7, inhalation (aerosol, olive oil) 0.2 mg/kg per day, seven days, individual cases): 6.0 micrograms of aprepitant per gram of lung tissue
Lung concentration of aprepitant LIPI (left inferior lobe) [7]: 6.0 micrograms of aprepitant per gram of lung tissue and 5.9 micrograms of aprepitant per gram of lung tissue
Lung concentration of aprepitant LMPD (right middle lobe) [7]: 6.0 micrograms of aprepitant per gram of lung tissue and 6.1 micrograms of aprepitant per gram of lung tissue
Lung concentration of aprepitant LSPD (right superior lobe) [7]: 5.9 micrograms of aprepitant per gram of lung tissue and 6.0 micrograms of aprepitant per gram of lung tissue
Lung concentration of aprepitant LSPI (left superior lobe) [7]: 6.1 micrograms of aprepitant per gram of lung tissue and 5.9 micrograms of aprepitant per gram of lung tissue
Lung concentration of aprepitant LIPD (right inferior lobe) [8]: 10.4 micrograms of aprepitant per gram of lung tissue and 10.0 micrograms of aprepitant per gram of lung tissue
Lung concentration of aprepitant LIPI (left inferior lobe) [8]: 10.1 micrograms of aprepitant per gram of lung tissue and 9.9 micrograms of aprepitant per gram of lung tissue
Lung concentration of aprepitant LMPD (right middle lobe) [8]: 10.1 micrograms of aprepitant per gram of lung tissue and 9.9 micrograms of aprepitant per gram of lung tissue
Lung concentration of aprepitant LSPD (right superior lobe) [8]: 10.0 micrograms of aprepitant per gram of lung tissue and 9.8 micrograms of aprepitant per gram of lung tissue
Lung concentration of aprepitant LSPI (left superior lobe) [8]: 10.2 micrograms of aprepitant per gram of lung tissue and 10.0 micrograms of aprepitant per gram of lung tissue
